From patent US10688128B2, “Use of Z-butylidenephthalide in activating autoimmune system” (EVERFRONT BIOTECH INC., priority 2016, dated 2020)

What was measured:
[1] = test system: PDL-1 protein; test: Expression of PDL-1 protein by Western Blotting, H1650 cell line; type: cell-based; details: H1650 cell line (human non-small-cell lung cancer cells), various concentrations of Z-BP, 24 hours, actin internal control
Method: (§1) The RG2 cell line (rat malignant glioma cells), […] cell line (glioblastoma stem cells), Paca2 cell line (human pancreatic cancer cells), […] cell line (human non-small-cell lung cancer cells), or B16 cell line (mouse melanocytoma cells) were independently treated with various concentrations of Z-BP for 24 hours. Then, the proteins in the cells were extracted and the expressions of PDL-1 protein in the cancer cells treated with Z-BP were detected by Western Blotting. In addition, the expression of actin was detected and used as the internal control.

[2] = test system: PDL-1 protein; test: Expression of PDL-1 protein by Western Blotting, B16 cell line; type: cell-based; details: B16 cell line (mouse melanocytoma cells), various concentrations of Z-BP, 24 hours, actin internal control
Method: as §1

[3] = test system: PDL-1 protein; test: Expression of PDL-1 protein by Western Blotting, RG2 cell line; type: cell-based; details: RG2 cell line (rat malignant glioma cells), various concentrations of Z-BP, 24 hours, actin internal control
Method: as §1

[4] = test system: PDL-1 protein; test: Expression of PDL-1 protein by Western Blotting, Paca2 cell line; type: cell-based; details: Paca2 cell line (human pancreatic cancer cells), various concentrations of Z-BP, 24 hours, actin internal control
Method: as §1

[5] = test system: PDL-1 protein; test: Expression of PDL-1 protein by Western Blotting, 1×M cell line; type: cell-based; details: 1×M cell line (glioblastoma stem cells), various concentrations of Z-BP, 24 hours, actin internal control
Method: as §1

[6] = test system: stage three or four melanoma; details: patients with stage three or four melanoma, Ipilimumab alone; cited from earlier work

Compound	expression of PDL-1 protein [1]	expression of PDL-1 protein [2]	expression of PDL-1 protein [3]	expression of PDL-1 protein [4]	expression of PDL-1 protein [5]	overall survival rate increased [6] [months]
CCC/C=C1\OC(=O)c2ccccc21 [Z-BP, Z-butylidenephthalide]	significantly decreased	significantly decreased	significantly decreased	significantly decreased	significantly decreased	–
Ipilimumab	–	–	–	–	–	10.1
